The first assay concerns the target Nav 1.7 (Homo sapiens (Human), UniProt Q15858). Nature of the assay: Nav 1.7 in vitro PX assay (PatchXpress whole cell voltage clamp).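 Also: holding potential set for 20 to 50% inactivation, sodium current evoked by a 20 ms step to −10 mV, peak current inhibition read after compound exposure, 3–5 cells per concentration.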 The class given is cell-based. To be noted: PatchXpress (PX).
Sequence of Nav 1.7 (Q15858 whole entry): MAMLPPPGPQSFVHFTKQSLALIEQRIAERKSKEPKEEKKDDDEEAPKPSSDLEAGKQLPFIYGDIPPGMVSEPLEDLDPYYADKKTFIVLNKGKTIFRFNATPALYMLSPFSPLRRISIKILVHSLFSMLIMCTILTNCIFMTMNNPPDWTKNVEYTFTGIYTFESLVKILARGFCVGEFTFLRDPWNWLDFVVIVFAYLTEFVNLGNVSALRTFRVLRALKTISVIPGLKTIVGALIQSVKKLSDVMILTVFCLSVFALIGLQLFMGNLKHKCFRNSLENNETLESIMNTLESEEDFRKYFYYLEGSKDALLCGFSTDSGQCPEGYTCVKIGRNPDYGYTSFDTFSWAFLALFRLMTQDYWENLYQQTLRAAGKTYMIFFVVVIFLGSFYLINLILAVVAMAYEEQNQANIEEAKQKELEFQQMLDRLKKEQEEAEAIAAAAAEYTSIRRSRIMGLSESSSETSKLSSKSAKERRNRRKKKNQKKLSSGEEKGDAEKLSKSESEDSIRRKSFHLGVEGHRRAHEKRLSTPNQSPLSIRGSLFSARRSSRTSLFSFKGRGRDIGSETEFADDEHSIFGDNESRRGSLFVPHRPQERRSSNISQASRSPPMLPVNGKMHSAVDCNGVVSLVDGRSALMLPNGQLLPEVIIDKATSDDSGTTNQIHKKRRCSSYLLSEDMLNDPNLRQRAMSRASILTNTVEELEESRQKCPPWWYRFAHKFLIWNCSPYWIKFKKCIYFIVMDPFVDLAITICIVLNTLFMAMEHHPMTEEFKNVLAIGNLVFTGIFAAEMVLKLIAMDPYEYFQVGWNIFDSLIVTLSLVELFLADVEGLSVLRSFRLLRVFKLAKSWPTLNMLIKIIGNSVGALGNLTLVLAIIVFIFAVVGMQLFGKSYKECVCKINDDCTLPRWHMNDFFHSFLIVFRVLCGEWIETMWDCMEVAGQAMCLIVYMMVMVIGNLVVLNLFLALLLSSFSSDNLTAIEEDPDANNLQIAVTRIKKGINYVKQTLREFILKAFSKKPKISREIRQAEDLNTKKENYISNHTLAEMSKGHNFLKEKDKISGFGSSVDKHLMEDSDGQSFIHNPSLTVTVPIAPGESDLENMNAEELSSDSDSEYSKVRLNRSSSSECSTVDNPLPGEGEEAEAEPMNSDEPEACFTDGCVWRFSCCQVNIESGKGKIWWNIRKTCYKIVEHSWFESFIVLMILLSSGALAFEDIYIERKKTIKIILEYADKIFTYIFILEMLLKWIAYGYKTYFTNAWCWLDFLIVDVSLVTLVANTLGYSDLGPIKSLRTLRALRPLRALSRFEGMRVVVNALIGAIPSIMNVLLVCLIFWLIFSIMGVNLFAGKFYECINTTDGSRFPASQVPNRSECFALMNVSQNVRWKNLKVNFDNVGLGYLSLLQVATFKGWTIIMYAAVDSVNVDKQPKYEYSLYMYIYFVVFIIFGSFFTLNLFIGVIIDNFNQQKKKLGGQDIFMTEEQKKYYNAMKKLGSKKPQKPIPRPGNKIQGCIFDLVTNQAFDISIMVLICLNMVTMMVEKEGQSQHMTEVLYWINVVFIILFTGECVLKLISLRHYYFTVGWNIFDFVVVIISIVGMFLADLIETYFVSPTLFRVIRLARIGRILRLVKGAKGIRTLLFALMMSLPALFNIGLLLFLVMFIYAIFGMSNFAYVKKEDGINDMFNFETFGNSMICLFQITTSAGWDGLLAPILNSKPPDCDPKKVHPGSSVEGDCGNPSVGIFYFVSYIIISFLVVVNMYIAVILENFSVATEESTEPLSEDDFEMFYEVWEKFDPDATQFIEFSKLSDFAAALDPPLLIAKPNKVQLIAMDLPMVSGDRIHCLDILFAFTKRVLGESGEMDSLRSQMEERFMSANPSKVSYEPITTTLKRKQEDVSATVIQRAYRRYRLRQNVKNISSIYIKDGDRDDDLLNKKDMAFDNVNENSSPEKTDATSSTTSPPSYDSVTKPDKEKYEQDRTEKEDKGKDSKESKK
For the compound `COc1cc(C(F)(F)F)c(Cl)cc1-c1nccc2cc(S(=O)(=O)Nc3ccon3)ccc12` [Example 249, 1-(5-chloro-2-methoxy-4-(trifluoromethyl)phenyl)-N-3-isoxazolyl-6-isoquinolinesulfonamide], the midpoint of inhibition, the IC50, lay at 224 nM. The compound `COc1cc(C(F)F)c(C)cc1-c1nccc2cc(S(=O)(=O)Nc3ccon3)ccc12` [Example 250, 1-(4-(difluoromethyl)-2-methoxy-5-methylphenyl)-N-3-isoxazolyl-6-isoquinolinesulfonamide] showed an IC50 of 728 nM. The compound `COc1cc(C(F)F)c(C2CC2)cc1-c1nccc2cc(S(=O)(=O)Nc3ccon3)ccc12` [Example 251, 1-(5-cyclopropyl-4-(difluoromethyl)-2-methoxyphenyl)-N-3-isoxazolyl-6-isoquinolinesulfonamide] showed an IC50 of 431 nM.

As for `COc1cc(-c2ccc(Cl)c(C)c2)c(C)cc1-c1ncnc2cc(S(=O)(=O)Nc3ccon3)ccc12` [Example 252, 4-(4′-chloro-5-methoxy-2,3′-dimethyl-4-biphenylyl)-N-3-isoxazolyl-7-quinazolinesulfonamide], the midpoint of inhibition, the IC50, lay at 32 nM. Regarding `COc1cc(-c2ccc(Cl)c(C)c2)c(C)cc1-c1nccc2cc(S(=O)(=O)Nc3ccon3)ccc12` [Example 253, 1-(4′-chloro-5-methoxy-2,3′-dimethyl-4-biphenylyl)-N-3-isoxazolyl-6-isoquinolinesulfonamide], the IC50 is 118 nM. `COc1cc(-c2cccc(F)c2)c(Cl)cc1-c1nccc2cc(S(=O)(=O)Nc3ccsn3)ccc12` [Example 254, 1-(2-chloro-3′-fluoro-5-methoxy-4-biphenylyl)-N-3-isothiazolyl-6-isoquinolinesulfonamide] yielded an IC50 of 289 nM. The compound `COc1cc(-c2ccc(Cl)c(C)c2)c(Cl)cc1-c1nncc2cc(S(=O)(=O)Nc3ccsn3)ccc12` [Example 255, 1-(2,4′-dichloro-5-methoxy-3′-methyl-4-biphenylyl)-N-3-isothiazolyl-6-phthalazinesulfonamide] displayed an IC50 of 320 nM. `COc1cc(-c2cc(F)cc(F)c2)c(Cl)cc1-c1nncc2cc(S(=O)(=O)Nc3ccsn3)ccc12` [Example 256, 1-(2-chloro-3′,5′-difluoro-5-methoxy-4-biphenylyl)-N-3-isothiazolyl-6-phthalazinesulfonamide] registered an IC50 of 85.2 nM. Regarding `COc1cc(-c2cccc(F)c2)c(Cl)cc1-c1nccc2cc(S(=O)(=O)Nc3ncco3)ccc12` [Example 257, 1-(2-chloro-3′-fluoro-5-methoxy-4-biphenylyl)-N-1,3-oxazol-2-yl-6-isoquinolinesulfonamide], the IC50 was found to be 222 nM. As for `COc1cc(C(F)(F)F)c(C2CC2)cc1-c1nccc2cc(S(=O)(=O)Nc3ccon3)ccc12` [Example 258, 1-(5-cyclopropyl-2-methoxy-4-(trifluoromethyl)phenyl)-N-3-isoxazolyl-6-isoquinolinesulfonamide], half-maximal inhibition (IC50) was put at 543 nM. `COc1cc(-c2cc(C)cc(F)c2)c(C)cc1-c1ncnc2cc(S(=O)(=O)Nc3ccon3)ccc12` [Example 260, 4-(3′-fluoro-5-methoxy-2,5′-dimethyl-4-biphenylyl)-N-3-isoxazolyl-7-quinazolinesulfonamide] yielded an IC50 of 36.7 nM. With `COc1cc(-c2ccc(F)c(C)c2)c(C)cc1-c1ncnc2cc(S(=O)(=O)Nc3ccon3)ccc12` [Example 261, 4-(4′-fluoro-5-methoxy-2,3′-dimethyl-4-biphenylyl)-N-3-isoxazolyl-7-quinazolinesulfonamide], the IC50 stood at 38.1 nM. On the same count and under the same terms, then `COc1cc(-c2cc(C)c(C)cc2C)c(C)cc1-c1ncnc2cc(S(=O)(=O)Nc3ccon3)ccc12` [Example 262, N-3-isoxazolyl-4-(5-methoxy-2,2′,4′,5′-tetramethyl-4-biphenylyl)-7-quinazolinesulfonamide], with 62.5 nM; and `COc1cc(-c2cccc(C)c2)c(C)cc1-c1ncnc2cc(S(=O)(=O)Nc3ccon3)ccc12` [Example 263, N-3-isoxazolyl-4-(5-methoxy-2,3′-dimethyl-4-biphenylyl)-7-quinazolinesulfonamide], with 102 nM.

In turn, `COc1cc(-c2cccc(Cl)c2)c(C)cc1-c1ncnc2cc(S(=O)(=O)Nc3ccon3)ccc12` [Example 264, 4-(3′-chloro-5-methoxy-2-methyl-4-biphenylyl)-N-3-isoxazolyl-7-quinazolinesulfonamide] returned an IC50 of 12.1 nM. On to `COc1cc(-c2cccc(C(F)(F)F)c2)c(C)cc1-c1ncnc2cc(S(=O)(=O)Nc3ccon3)ccc12` [Example 265, N-3-isoxazolyl-4-(5-methoxy-2-methyl-3′-(trifluoromethyl)-4-biphenylyl)-7-quinazolinesulfonamide], for which it took 18.4 nM to reach half-maximal inhibition (IC50).

Turning to `COc1ccc(Cl)cc1-c1cc(OC)c(-c2ncnc3cc(S(=O)(=O)Nc4ccon4)ccc23)cc1C` [Example 266, 4-(5′-chloro-2′,5-dimethoxy-2-methyl-4-biphenylyl)-N-3-isoxazolyl-7-quinazolinesulfonamide], the IC50 stood at 18.1 nM.

In the case of `COc1cc(-c2ccc(C)c(Cl)c2)c(C)cc1-c1ncnc2cc(S(=O)(=O)Nc3ccon3)ccc12` [Example 267, 4-(3′-chloro-5-methoxy-2,4′-dimethyl-4-biphenylyl)-N-3-isoxazolyl-7-quinazolinesulfonamide], the half-maximal inhibitory concentration (IC50) is 28.7 nM. Compound `COc1cc(-c2cc(C)cc(Cl)c2)c(C)cc1-c1ncnc2cc(S(=O)(=O)Nc3ccon3)ccc12` [Example 268, 4-(3′-chloro-5-methoxy-2,5′-dimethyl-4-biphenylyl)-N-3-isoxazolyl-7-quinazolinesulfonamide] yielded an IC50 of 23.9 nM. The compound `COc1cc(-c2ccc(F)c(Cl)c2)c(C)cc1-c1ncnc2cc(S(=O)(=O)Nc3ccon3)ccc12` [Example 269, 4-(3′-chloro-4′-fluoro-5-methoxy-2-methyl-4-biphenylyl)-N-3-isoxazolyl-7-quinazolinesulfonamide] returned an IC50 of 25.2 nM. Turning to `COc1cc(-c2cc(F)cc(Cl)c2)c(C)cc1-c1ncnc2cc(S(=O)(=O)Nc3ccon3)ccc12` [Example 270, 4-(3′-chloro-5′-fluoro-5-methoxy-2-methyl-4-biphenylyl)-N-3-isoxazolyl-7-quinazolinesulfonamide], the midpoint of inhibition, the IC50, lay at 29.9 nM. In turn, `COc1cc(-c2ccc(Cl)c(F)c2)c(C)cc1-c1ncnc2cc(S(=O)(=O)Nc3ccon3)ccc12` [Example 271, 4-(4′-chloro-3′-fluoro-5-methoxy-2-methyl-4-biphenylyl)-N-3-isoxazolyl-7-quinazolinesulfonamide] registered an IC50 of 47.2 nM. The same measure, in the same setting: then `COc1cc(-c2cc(F)cc(F)c2)c(C)cc1-c1nccc2cc(S(=O)(=O)Nc3ccon3)ccc12` [Example 272, 1-(3′,5′-difluoro-5-methoxy-2-methyl-4-biphenylyl)-N-3-isoxazolyl-6-isoquinolinesulfonamide], with 31.9 nM; and `COc1cc(-c2cc(C)cc(F)c2)c(C)cc1-c1nccc2cc(S(=O)(=O)Nc3ccon3)ccc12` [Example 273, 1-(3′-fluoro-5-methoxy-2,5′-dimethyl-4-biphenylyl)-N-3-isoxazolyl-6-isoquinolinesulfonamide], with 73.3 nM. Same read-out and setting: as for `COc1cc(-c2ccc(F)c(C)c2)c(C)cc1-c1nccc2cc(S(=O)(=O)Nc3ccon3)ccc12` [Example 274, 1-(4′-fluoro-5-methoxy-2,3′-dimethyl-4-biphenylyl)-N-3-isoxazolyl-6-isoquinolinesulfonamide], the figure is 63.2 nM; as for `COc1cc(-c2cc(C)c(C)cc2C)c(C)cc1-c1nccc2cc(S(=O)(=O)Nc3ccon3)ccc12` [Example 275, N-3-isoxazolyl-1-(5-methoxy-2,2′,4′,5′-tetramethyl-4-biphenylyl)-6-isoquinolinesulfonamide], 242 nM.

`COc1cc(-c2cccc(C)c2)c(C)cc1-c1nccc2cc(S(=O)(=O)Nc3ccon3)ccc12` [Example 276, N-3-isoxazolyl-1-(5-methoxy-2,3′-dimethyl-4-biphenylyl)-6-isoquinolinesulfonamide] had an IC50 of 169 nM. Still for that read-out and setting: then `COc1cc(-c2cccc(Cl)c2)c(C)cc1-c1nccc2cc(S(=O)(=O)Nc3ccon3)ccc12` [Example 277, 1-(3′-chloro-5-methoxy-2-methyl-4-biphenylyl)-N-3-isoxazolyl-6-isoquinolinesulfonamide], with 40 nM.

The assay is the same for the next values; noted with them: in-vitro Nav 1.7 PX (PatchXpress).
With `COc1cc(-c2cc(F)cnc2OC)c(C)cc1-c1nccc2cc(S(=O)(=O)Nc3ccon3)ccc12` [Example 279, 1-(4-(5-fluoro-2-methoxy-3-pyridinyl)-2-methoxy-5-methylphenyl)-N-3-isoxazolyl-6-isoquinolinesulfonamide], the IC50 worked out at 63 nM. With `COc1ccc(F)cc1-c1cc(OC)c(-c2nccc3cc(S(=O)(=O)Nc4ccon4)ccc23)cc1C` [Example 280, 1-(5′-fluoro-2′,5-dimethoxy-2-methyl-4-biphenylyl)-N-3-isoxazolyl-6-isoquinolinesulfonamide], the IC50 was 60.3 nM. As to `COc1ccc(Cl)cc1-c1cc(OC)c(-c2nccc3cc(S(=O)(=O)Nc4ccon4)ccc23)cc1C` [Example 281, 1-(5′-chloro-2′,5-dimethoxy-2-methyl-4-biphenylyl)-N-3-isoxazolyl-6-isoquinolinesulfonamide], inhibition was half-maximal at 16.4 nM (IC50).

`COc1cc(-c2ccc(C)c(Cl)c2)c(C)cc1-c1nccc2cc(S(=O)(=O)Nc3ccon3)ccc12` [Example 282, 1-(3′-chloro-5-methoxy-2,4′-dimethyl-4-biphenylyl)-N-3-isoxazolyl-6-isoquinolinesulfonamide] showed an IC50 of 98.6 nM. `COc1cc(-c2cc(C)cc(Cl)c2)c(C)cc1-c1nccc2cc(S(=O)(=O)Nc3ccon3)ccc12` [Example 283, 1-(3′-chloro-5-methoxy-2,5′-dimethyl-4-biphenylyl)-N-3-isoxazolyl-6-isoquinolinesulfonamide] had an IC50 of 37.5 nM. Compound `COc1cc(-c2ccc(F)c(Cl)c2)c(C)cc1-c1nccc2cc(S(=O)(=O)Nc3ccon3)ccc12` [Example 284, 1-(3′-chloro-4′-fluoro-5-methoxy-2-methyl-4-biphenylyl)-N-3-isoxazolyl-6-isoquinolinesulfonamide] returned an IC50 of 22.8 nM.
